Experimental data published in patent US6358883B1, “Pesticidal and parasiticidal use of 1-aryl-1-(substituted thio, sulfinyl and sulfonyl)-2-nitroethane compounds” (American Cyanamid Company, priority 1998, dated 2002).

Key:
Type in all cases: in vivo
[1] = test system: M. incognita (Root Knot Nematode) larvae; experiment: Evaluation of test compounds against M. incognita larvae in microtiter plate wells (movement score); details: larvae scored for movement after 20-24 hours; further: key: A score of '9' indicates inactive worms with a straight, sticklike morphology; A score of '8' indicates inactive worms with a limp, curled or curved morphology; A score of '7' indicates dead/paralyzed worms after 72 hours
Summary of the method: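 Newly emerged M. incognita larvae in S Medium (buffered salt solution), 50-65 worms per well, exposed to test compounds in sealed microtiter wells. Movement scored after 20-24 h incubation; wells with obviously dead/paralyzed larvae scored positive. A score of "7" denotes dead/paralyzed worms after […].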

[2] = test system: C. elegans (Bristol strain); experiment: Evaluation of test compounds against C. elegans (motility, 96-well plate); design: key: 9=complete kill in 4 hours; 8=complete kill in 24 hours; 7=markedly reduced motility in approximately 95% of worms in 24 hours; 0=normal motility, same as controls; details: motility at 4 and 24 hours
Summary of the method: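 Bristol-strain C. elegans in Na buffer added to wells containing dried compound (applied in 80% acetone) and incubated at 20 °C. Motility of adults and larvae scored subjectively but semi-quantitatively under a dissecting microscope at 4 and 24 h after immersion, plates tapped before reading.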

[3] = test system: Spodoptera eridania, 2nd instar larvae, southern armyworm (SAW); experiment: Southern armyworm (SAW) leaf dip test; design: key: 0 = no effect; 1 = 10-25% kill; 2 = 26-35% kill; 3 = 36-45% kill; 4 = 46-55% kill; 5 = 56-65% kill; 6 = 66-75% kill; 7 = 76-85% kill; 8 = 86-99% kill; 9 = 100% kill
Summary of the method: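 Compound is dissolved at 10,000 ppm in 35% acetone/water, then diluted with water. Lima bean leaves are dipped for 3 seconds, dried and placed with ten 2nd instar larvae on damp filter paper. Mortality, reduced feeding and molting interference are scored at 5 days.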

[4] = test system: Diabrotica virgifera virgifera Leconte, 2nd instar western corn rootworm (WCR); experiment: Western corn rootworm (WCR) soil test; design: key: 0 = no effect; 1 = 10-25% kill; 2 = 26-35% kill; 3 = 36-45% kill; 4 = 46-55% kill; 5 = 56-65% kill; 6 = 66-75% kill; 7 = 76-85% kill; 8 = 86-99% kill; 9 = 100% kill
Summary of the method: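 Compound in 35% acetone/water applied to talc at 1.25 mg active ingredient per jar (about 50 kg/ha), solvent evaporated, then mixed with millet seed and moist soil. Ten 2nd-instar larvae per jar; mortality counted after 5 days, missing larvae scored dead.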

[5] = test system: Tetranychus urticae (OP-resistant strain), 2-spotted spider mite (TSM); experiment: 2-spotted spider mite (TSM) plant dip test; design: key: 0 = no effect; 1 = 10-25% kill; 2 = 26-35% kill; 3 = 36-45% kill; 4 = 46-55% kill; 5 = 56-65% kill; 6 = 66-75% kill; 7 = 76-85% kill; 8 = 86-99% kill; 9 = 100% kill; details: mortality after 2 days
Summary of the method: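 OP-resistant mites (~100 per leaf) were transferred onto Sieva lima bean primary leaves about 2 h before treatment. Infested plants were dipped for 3 s in compound from a 10,000 ppm stock in 35% acetone/water, diluted with water. Mortality was counted after 2 days.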

[6] = test system: Aphis gossypii, cotton aphid (CA); experiment: Cotton aphid (CA) cotyledon dip test; design: key: 0 = no effect; 1 = 10-25% kill; 2 = 26-35% kill; 3 = 36-45% kill; 4 = 46-55% kill; 5 = 56-65% kill; 6 = 66-75% kill; 7 = 76-85% kill; 8 = 86-99% kill; 9 = 100% kill; details: mortality after 5 days
Summary of the method: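 Cotyledon-stage cotton plants infested overnight via a heavily infested leaf, then dipped in test solution (compound in 35% acetone/water, diluted with water) and dried. Mortality counted after 5 days.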

[7] = test system: Spodoptera eridania, eggs-southern armyworm (SAW-Eggs); experiment: Southern armyworm eggs (SAW-Eggs) treated diet test; design: key: 0 = no effect; 1 = 10-25% kill; 2 = 26-35% kill; 3 = 36-45% kill; 4 = 46-55% kill; 5 = 56-65% kill; 6 = 66-75% kill; 7 = 76-85% kill; 8 = 86-99% kill; 9 = 100% kill; details: mortality after 7 days
Summary of the method: (§1)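 Compounds dissolved at 10,000 ppm in 35% acetone/water, diluted with water, applied to artificial diet in wells and dried. Southern corn rootworm or southern armyworm eggs placed on treated diet under vented covers; mortality counted after 7 days.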

[8] = test system: Diabrotica undecimpunctata howardi, eggs-southern corn rootworm (SCR-Eggs); experiment: Southern corn rootworm eggs (SCR-Eggs) treated diet test; design: key: 0 = no effect; 1 = 10-25% kill; 2 = 26-35% kill; 3 = 36-45% kill; 4 = 46-55% kill; 5 = 56-65% kill; 6 = 66-75% kill; 7 = 76-85% kill; 8 = 86-99% kill; 9 = 100% kill; details: mortality after 7 days
Summary of the method: as §1

Row | Compound | M. incognita (150 ppm) score [1] | Rating Against C. elegans (150 ppm) [2] | SAW (300 ppm) rating [3] | WCR (50 ppm) rating [4] | TSM (300 ppm) rating [5] | CA (300 ppm) rating [6] | SAW Eggs (300 ppm) rating [7] | SCR Eggs (1000 ppm) rating [8]
1 | COc1ccc(C(C[N+](=O)[O-])SCc2ccccc2)cc1 (centres unmarked) [Example 52] | 9 | 9 | 0 | 4 (4 = 46-55% kill) | 0 | 0 | 0 | 0
2 | CCOC(=O)CSC(C[N+](=O)[O-])c1ccc(C)cc1 (centres unmarked) [Example 5] | 9 | 9 | 0 | 4 (4 = 46-55% kill) | 0 | 0 | 0 | 0
3 | CCCCOC(=O)CSC(C[N+](=O)[O-])c1cccnc1 (centres unmarked) [Example 173] | 9 | 8 | 0 | 0 | 0 | 0 | 0 | 0
4 | CCOC(=O)CSC(C[N+](=O)[O-])c1c(Cl)cccc1Cl (centres unmarked) [Example 132] | 0 | 0 | 0 | 0 | 0 | 0 | 9 (9 = 100% kill) | 9 (9 = 100% kill)
5 | CCCSC(C[N+](=O)[O-])c1c(Cl)cccc1Cl (centres unmarked) [Example 136] | 0 | 0 | 0 | 0 | 0 | 0 | 0 | 0
6 | CCOC(=O)CSC(C[N+](=O)[O-])c1cccc(C#N)c1 (racemic) [Example 99] | 0 | 0 | 0 | 0 | 0 | 0 | 0 | 0
7 | COc1ccc(C(C[N+](=O)[O-])SCC(=O)OCc2ccccc2)cc1 (racemic) [Example 108] | 9 | 8 | 0 | 0 | 0 | 0 | 9 (9 = 100% kill) | 0
8 | CCCCC(CC)COC(=O)CSC(C[N+](=O)[O-])c1ccc(OC)cc1 (centres unmarked) [Example 51] | 0 | 0 | 0 | 4 (4 = 46-55% kill) | 0 | 0 | 9 (9 = 100% kill) | 8 (8 = 86-99% kill)
9 | O=C(O)CSC(C[N+](=O)[O-])c1ccc2ccccc2c1 (racemic) [Example 109] | 0 | 9 | 0 | 0 | 0 | 0 | 0 | 0
10 | O=[N+]([O-])CC(SCc1ccccc1)c1ccc(OC(F)(F)F)cc1 (centres unmarked) [Example 124] | 0 | 7 | 0 | 0 | 0 | 0 | 9 (9 = 100% kill) | 0
11 | COC(=O)CSC(C[N+](=O)[O-])c1c(Cl)cccc1Cl (centres unmarked) [Example 131] | 9 | 7 | 0 | 0 | 0 | 0 | 0 | 0
12 | C=CCSC(C[N+](=O)[O-])c1ccc(OC(F)(F)F)cc1 (centres unmarked) [Example 123] | 0 | 7 | 0 | 5 (5 = 56-65% kill) | 0 | 0 | 8 (8 = 86-99% kill) | 0
13 | COC(=O)CSC(C[N+](=O)[O-])c1ccccc1 (centres unmarked) [Example 4] | 9 | 9 | 0 | 4 (4 = 46-55% kill) | 0 | 5 (5 = 56-65% kill) | 0 | 0
14 | O=C(CSC(C[N+](=O)[O-])c1ccc(OC(F)(F)F)cc1)OCc1ccccc1 (racemic) [Example 121] | 8 | 9 | 0 | 0 | 0 | 0 | 0 | 0
15 | CCCOC(=O)CSC(C[N+](=O)[O-])c1c(Cl)cccc1Cl (centres unmarked) [Example 133] | 0 | 0 | 0 | 0 | 0 | 0 | 0 | 9 (9 = 100% kill)
16 | CC(C)CCCCCOC(=O)CSC(C[N+](=O)[O-])c1ccc2c(c1)OCO2 (centres unmarked) [Example 21] | 8 | 0 | 0 | 0 | 0 | 7 (7 = 76-85% kill) | 0 | 0
17 | C=CCSC(C[N+](=O)[O-])c1cccnc1 (centres unmarked) [Example 176] | 9 | 0 | 0 | 0 | 0 | 0 | 0 | 0
18 | COc1cccc(C(C[N+](=O)[O-])SCC(=O)OCCCCCC(C)C)c1 (centres unmarked) [Example 58] | 0 | 0 | 0 | 0 | 0 | 0 | 0 | 0
19 | CCCSC(C[N+](=O)[O-])c1ccc(OC(F)(F)F)cc1 (racemic) [Example 122] | 0 | 8 | 2 (2 = 26-35% kill) | 9 (9 = 100% kill) | 7 (7 = 76-85% kill) | 0 | 7 (7 = 76-85% kill) | 0
